Test results reported in US20210292347A1, “DIHETEROCYCLIC TRIAZINONE NUCLEOSIDE ANALOGS AND THEIR USE FOR MEDICATION” (priority 2020, published 2021).

System: mice sarcoma S180
Assay: Growth inhibition of S180 sarcoma in mice
Format: in vivo, Kunming healthy mice
Details: for in-vivo anti-tumor efficacy, statistical significance (in words): S180 sarcoma in mice, doses and routes of Table 3
[1] = Mus musculus, S-180, mice, ip, read-out: Inhibition rate (%) S180 sarcoma

N#Cc1nn(C(N)=O)c2c(=O)n(C3OC(CO)C(O)C3O)nnc12 (stereo not drawn) [Example 58, 7-cyano-3-(3,4-dihydroxy-5-(hydroxymethyl)tetrahydrofuran-2-yl)-4-oxo-3H-pyrazolo[4,3-d][1,2,3]triazine-5(4H)-carboxamide]
inhibition in vivo at 100 mg/kg [1]: < 40%
in-vivo anti-tumor efficacy, statistical significance (in words): statistically significant

NC(=O)n1nc(N2CCCCC2)c2nnn(C3OC(CO)C(O)C3O)c(=O)c21 (stereo not drawn) [Example 59, 3-(3,4-dihydroxy-5-(hydroxymethyl)tetrahydrofuran-2-yl)-4-oxo-7-(piperidin-1-yl)-3H-pyrazolo[4,3-d][1,2,3]triazine-5(4H)-carboxamide]
inhibition in vivo at 50 mg/kg (Mus musculus, S-180, mice, iv, 50 mg/kg, read-out: Inhibition rate (%) S180 sarcoma): < 20%

NC(=O)n1nc([N+](=O)[O-])c2nnn(C3OC(CO)C(O)C3O)c(=O)c21 (stereo not drawn) [Example 60, 3-(3,4-dihydroxy-5-(hydroxymethyl)tetrahydrofuran-2-yl)-7-nitro-4-oxo-3H-pyrazolo[4,3-d][1,2,3]triazine-5(4H)-carboxamide]
inhibition in vivo at 15 mg/kg (Mus musculus, S-180, mice, iv, 15 mg/kg, read-out: Inhibition rate (%) S180 sarcoma): < 40%
in-vivo anti-tumor efficacy, statistical significance (in words): statistically significant

COc1ccc(C(=O)Nc2nn(C(N)=O)c3c(=O)n(C4OC(CO)C(O)C4O)nnc23)cc1 (stereo not drawn) [Example 61, 3-(3,4-dihydroxy-5-(hydroxymethyl)tetrahydrofuran-2-yl)-7-(4-methoxybenzamido)-4-oxo-3H-pyrazolo[4,3-d][1,2,3]triazine-5(4H)-carboxamide]
inhibition in vivo at 12.5 mg/kg (Mus musculus, S-180, mice, iv, 12.5 mg/kg, read-out: Inhibition rate (%) S180 sarcoma): < 20%

CCCc1nn(C(=N)N)c2c(=O)n(C3OC(CO)C(O)C3O)nnc12 (stereo not drawn) [Example 68, 3-(3,4-dihydroxy-5-(hydroxymethyl)tetrahydrofuran-2-yl)-4-oxo-7-propyl-3H-pyrazolo [4,3-d][1,2,3]triazine-5(4H)-carboximidamide]
inhibition in vivo at 20 mg/kg (Mus musculus, S-180, mice, iv, 20 mg/kg, read-out: Inhibition rate (%) S180 sarcoma): < 40%
in-vivo anti-tumor efficacy, statistical significance (in words): statistically significant

N#Cc1nn(C(=N)N)c2c(=O)n(C3OC(CO)C(O)C3O)nnc12 (stereo not drawn) [Example 70, 7-cyano-3-(3,4-dihydroxy-5-(hydroxymethyl)tetrahydrofuran-2-yl)-4-oxo-3H-pyrazolo[4,3-d][1,2,3]triazine-5(4H)-carboximidamide]
inhibition in vivo at 100 mg/kg [1]: < 40%
in-vivo anti-tumor efficacy, statistical significance (in words): statistically significant

N=C(N)n1nc([N+](=O)[O-])c2nnn(C3OC(CO)C(O)C3O)c(=O)c21 (stereo not drawn) [Example 72, 3-(3,4-dihydroxy-5-(hydroxymethyl)tetrahydrofuran-2-yl)-7-nitro-4-oxo-3H-pyrazolo[4,3-d][1,2,3]triazine-5(4H)-carboximidamide]
inhibition in vivo at 25 mg/kg (Mus musculus, S-180, mice, iv, 25 mg/kg, read-out: Inhibition rate (%) S180 sarcoma): < 40%
in-vivo anti-tumor efficacy, statistical significance (in words): statistically significant

CCOC(=O)c1nn(C(N)=S)c2c(=O)n(C3OC(CO)C(O)C3O)nnc12 (stereo not drawn) [Example 73, ethyl 5-carbamothioyl-3-(3,4-dihydroxy-5-(hydroxymethyl)tetrahydrofuran-2-yl)-4-oxo-4,5-dihydro-3H-pyrazolo[4,3-d][1,2,3]triazine-7-carboxylate]
inhibition in vivo at 200 mg/kg [1]: < 40%
in-vivo anti-tumor efficacy, statistical significance (in words): statistically significant

CCCc1nn(C(N)=S)c2c(=O)n(C3OC(CO)C(O)C3O)nnc12 (stereo not drawn) [Example 74, 3-(3,4-dihydroxy-5-(hydroxymethyl)tetrahydrofuran-2-yl)-4-oxo-7-propyl-3H-pyrazolo[4,3-d][1,2,3]triazine-5(4H)-carbothioamide]
inhibition in vivo at 200 mg/kg [1]: < 40%
in-vivo anti-tumor efficacy, statistical significance (in words): statistically significant

CN(C)CCC(=O)Nc1nn(C(N)=S)c2c(=O)n(C3OC(CO)C(O)C3O)nnc12 (stereo not drawn) [Example 76, N-(5-carbamothioyl-3-(3,4-dihydroxy-5-(hydroxymethyl)tetrahydrofuran-2-yl)-4-oxo-4,5-dihydro-3H-pyrazolo[4,3-d][1,2,3]triazin-7-yl)-3-(dimethylamino) propanamide]
in-vivo anti-tumor efficacy, statistical significance (in words): statistically significant
Inhibition rate (%) S180 sarcoma (mice, ip, 400 mg/kg): ++ (++ represent of Inhibition rate % <40)
